Measurements: patent US5068064A, “N-substituted lauramides, their preparation and compositions in which they are present” (Sanofi, priority 1989, dated 1991)
In brackets after ≈: the same amount, converted by molar mass. Counter-ions that a name gives are not always drawn.

Key:
[1] = system: Escherichia coli CIP 54127; test: Minimum bactericidal concentration, first method (30 min contact), E. coli; assay type: cell-based; settings: CIP54127, 0.5 h, contact time 30 minutes
Description: (§1) In the two methods, a bacterial inoculum is brought into contact with different dilutions of the product for a determined period of time.
(§2) When the contact period has ended, an aliquot of the mixture of bacterial suspension and product is taken and brought into contact with an agent for neutralizing the bacterial activity of the mixture, either in a solid medium or in a liquid medium. The bactericidal activity of the product, expressed either as a concentration or as a percentage of active principle, corresponds to an absence of bacterial growth.
(§3) The first method makes it possible to define a minimum bactericidal concentration (MBC) or minimum fungicidal concentration (MFC), expressed in μg/ml. The contact time between product and bacterial suspension is 30 minutes. The neutralizer is included in agar.
(§4) The CIP bacterial strains chosen for the study, which are available from the Institut Pasteur, are:
(§5) 3. Escherichia coli CIP 54127
(§6) The strains are maintained on Tryptic Soy Agar® (TSA) marketed by Difco.
(§7) After 24 hours of culture at 37° C., the microbial growth is harvested with the aid of glass beads and 10 ml of diluent containing 1 g of tryptone and 8.5 g of sodium chloride in 1000 ml of distilled water. The suspension formed is shaken and the percentage transmission of light at 620 nm is measured in a spectrophotometer:
(§8) The bacterial inoculum corresponds to a 1:20 dilution of this bacterial suspension.
(§9) Plates containing cupules receive different dilutions of the test product. These dilutions of the test product are brought into contact with the different bacterial suspensions using a multiple site inoculator. After a contact time of 30 minutes, aliquots are transferred with this inoculator to the surface of an agar medium (TSA) placed in Petri dishes containing an activity neutralizer, namely 20 g of lubrol W, 2.5 g of Tween 80, 2.5 g of sodium thiosulfate and 1% of egg yolk in 1000 ml of TSA (Difco). A control for the efficacy of the neutralizer is prepared for each test product by depositing an aliquot of the dilution of the test product on the surface of the culture medium. After drying, the corresponding inoculum is deposited in the same place. An inoculum control is prepared on agar medium with and without neutralizer. The results are read off after 48 hours of incubation at 37° C.
(§10) They indicate the minimum bactericidal concentrations (MBC) for strains 1, 2, 3 and 4 and the minimum fungicidal concentrations (MFC) for strain 5.

[2] = system: Candida albicans CIP 1180; test: Percentage of fungicidal active principle, second method (5 min contact), C. albicans; assay type: cell-based
Description: as §1, §2
(§11) The second method makes it possible to define a percentage of bactericidal or fungicidal active principle by means of a simplified and automated adaptation of Afnor standards NF T 72-150 and NF T 72-170. In this method, the bactericidal activity of the product is determined with and without interfering substances. It is based on assessing the destruction of 99.99% of the initial bacteria by the product in 5 minutes. The interfering substances are of the protein type and are chosen for the actual conditions of application of this type of product. The contact time between product and bacterial suspension is 5 minutes, the neutralization step is 10 minutes and subculture is effected in a liquid medium.
(§12) The experiment is performed in microtiter plates; it comprises two steps. The first step, called the preliminary test, checks that the product is indeed neutralized. In the test proper, the different dilutions of the product are brought into contact with 2 to 6.10^3 cells per milliliter of the bacterial suspension in the second row of the microtiter plate. After a contact time of 5 minutes, an aliquot is transferred to the third row containing the neutralizer adapted to the product and to the strain. After a contact time of 10 minutes, aliquots are transferred to the last 5 rows containing Tryptic Soy Broth® (TSB) from Difco.
(§13) The interfering substances tested are a mixture of albumin and yeast extract. In the first row of the microplate, these proteins are brought into contact for 5 minutes with the different dilutions of the product. After this step, the same principle as above is applied: 5 minutes of contact with the germ, 10 minutes of contact with the neutralizer, transfer to TSB.
The antifungal activity of the products according to the invention was also determined with and without interfering substances using the method described above. The same strain was used as for the first technique, namely Candida albicans CIP 1180. It is harvested in an identical manner to that described in the first method.

[3] = system: Candida albicans CIP 1180; test: Minimum fungicidal concentration, first method (30 min contact), C. albicans; assay type: cell-based; settings: CIP1180, 0.5 h, contact time 30 minutes
Description: as §1, §2, §3, §9
The antifungal activity of the products according to the invention was also determined using the method described above. A representative strain of yeast was selected for the study: Candida albicans CIP 1180 (strain 5).
This is maintained on Sabouraud's Dextrose Agar marketed by Difco. The technique is identical to that described for studying the antibacterial activity. After 48 hours of culture at 37° C., the microbial growth is harvested with the aid of glass beads and 5 ml of diluent containing 1 g of tryptone and 8.5 g of sodium chloride in 1000 ml of distilled water; a further 5 ml of the diluent are then added. This suspension gives a percentage transmission of light at 620 nm of 2 to 3% in a spectrophotometer.
The inoculum corresponds to a 1:10 dilution of this microbial suspension. A 1:100 dilution of this suspension, observed between slide and cover glass through a No. 40 microscope objective, must show 10 cells per field, which corresponds to 1,000,000 yeasts per ml.
as §10

[4] = system: Staphylococcus aureus CIP 53154; test: Percentage of bactericidal active principle, second method (5 min contact), S. aureus; assay type: cell-based; settings: destruction of 99.99%
Description: as §1, §2, §11
(§14) The chosen bacterial strains are:
(§15) 1. Staphylococcus aureus
as §6
(§16) The strains are harvested in a manner identical to the first method; these suspensions contain between 1.10^8 and 3.10^8 cells per milliliter. Appropriate dilutions make it possible to have a suspension containing 2 to 6.10^3 cells per milliliter.
as §12, §13

[5] = system: Enterococcus faecium CIP 5855; test: Minimum bactericidal concentration, first method (30 min contact), E. faecium; assay type: cell-based; settings: CIP5855, 0.5 h, contact time 30 minutes
Description: as §1, §2, §3, §4, §6, §7, §8, §9, §10

[6] = system: Escherichia coli CIP 54127; test: Percentage of bactericidal active principle, second method (5 min contact), E. coli; assay type: cell-based; settings: destruction of 99.99%
Description: as §1, §2, §11, §14, §5, §6, §16, §12, §13

[7] = system: Mycobacterium smegmatis CIP 7326; test: Percentage of bactericidal active principle, second method (5 min contact), M. smegmatis; assay type: cell-based; settings: destruction of 99.99%
Description: as §1, §2, §11, §14
5. Mycobacterium smegmatis
as §6, §16, §12, §13

[8] = system: Pseudomonas aeruginosa CIP A22; test: Percentage of bactericidal active principle, second method (5 min contact), P. aeruginosa; assay type: cell-based; settings: destruction of 99.99%
Description: as §1, §2, §11, §14
4. Pseudomonas aeruginosa
as §6, §16, §12, §13

[9] = system: Enterococcus faecium CIP 5855; test: Percentage of bactericidal active principle, second method (5 min contact), E. faecium; assay type: cell-based; settings: destruction of 99.99%
Description: as §1, §2, §11, §14, §6, §16, §12, §13

[10] = system: Staphylococcus aureus CIP 53154; test: Minimum bactericidal concentration, first method (30 min contact), S. aureus; assay type: cell-based; settings: CIP53154, 0.5 h, contact time 30 minutes
Description: as §1, §2, §3, §4, §15, §6, §7, §8, §9, §10

[11] = system: Pseudomonas aeruginosa CIP A22; test: Minimum bactericidal concentration, first method (30 min contact), P. aeruginosa; assay type: cell-based; settings: CIPA22, 0.5 h, contact time 30 minutes
Description: as §1, §2, §3, §4
4. Psuedomonas aeruginosa
as §6, §7, §8, §9, §10

[12] = system: S. aureus, E. faecium, E. coli, P. aeruginosa, C. albicans; test: First method, bactericidal and fungicidal activity over all strains (Table II); assay type: cell-based; settings: contact time 30 minutes
Description: as §1, §2, §3
Plates containing cupules receive different dilutions of the test product. These dilutions of the test product are brought into contact with the different bacterial suspensions using a multiple site inoculator. […] The results are read off after 48 hours of incubation at 37° C.
The antifungal activity of the products according to the invention was also determined using the method described above. […]

Product solubility = settings: for solubility: water
[13] = Simple: without interfering substances
[14] = with proteins as interfering substances
[15] = Simple: without interfering substances, * activity limited to the zone indicated

Row | Structure (SMILES) | MBC [1] | Fungicidal activity, results in percentage of active principle, C. albicans [2, 13] | Fungicidal activity, results in percentage of active principle, C. albicans [2, 14] | MFC [3] | Bactericidal activity, results in percentage of active principle, S. aureus [4, 15] | Bactericidal activity, results in percentage of active principle, S. aureus [4, 14] | MBC [5] | Bactericidal activity, results in percentage of active principle, E. coli [6, 13] | Bactericidal activity, results in percentage of active principle, E. coli [6, 14] | Bactericidal activity, results in percentage of active principle, M. smegmatis [7, 15] | Bactericidal activity, results in percentage of active principle, M. smegmatis [7, 14] | Bactericidal activity, results in percentage of active principle, P. aeruginosa [8, 13] | Bactericidal activity, results in percentage of active principle, P. aeruginosa [8, 14] | Bactericidal activity, results in percentage of active principle, E. faecium [9, 13] | Bactericidal activity, results in percentage of active principle, E. faecium [9, 14] | MBC [10] | MBC [11] | Ranking of MBC and MFC among the products [12] | Product solubility (Product solubility; in TEG (tetraethylene glycol)) | solubility (Product solubility)
1 | CCCCCCCCCCCC(=O)NCCN1CCC(Cc2ccccc2)CC1.Cl [SR 44944 A, N-[2-(4-Benzylpiperidino)ethyl]lauramide hydrochloride] | 10 µg/mL | 0.01 percentage of active principle | 0.06 percentage of active principle | 10 µg/mL | < 0.01 percentage of active principle | 0.1 percentage of active principle | 10 µg/mL | 0.01 percentage of active principle | < 0.01 percentage of active principle | > 0.5 percentage of active principle | 0.06 percentage of active principle | < 0.01 percentage of active principle | 0.25 percentage of active principle | < 0.01 percentage of active principle | 0.03 percentage of active principle | 10 µg/mL | 50 µg/mL | – | – | –
2 | CCCCCCCCCCCC(=O)NCCCN1CCC(Cc2ccccc2)CC1 [SR 45320 A] | 10 µg/mL (≈ 24.1 µM) | 0.005 percentage of active principle | 0.05 percentage of active principle | 10 µg/mL (≈ 24.1 µM) | 0.005 percentage of active principle | 0.05 percentage of active principle | 10 µg/mL (≈ 24.1 µM) | 0.01 percentage of active principle | 0.05 percentage of active principle | – | 0.05 percentage of active principle | 0.005 percentage of active principle | > 0.5 percentage of active principle | < 0.001 percentage of active principle | 0.1 percentage of active principle | 10 µg/mL (≈ 24.1 µM) | 10 µg/mL (≈ 24.1 µM) | lowest MBC and MFC | 1% | –
3 | CCCCCCCCCCCC(=O)NCCN(C)Cc1ccccc1 [SR 45525] | 10 µg/mL (≈ 28.9 µM) | 0.05 percentage of active principle | 0.5 percentage of active principle | 50 µg/mL (≈ 144 µM) | 0.05 percentage of active principle | 0.5 percentage of active principle | 10 µg/mL (≈ 28.9 µM) | 0.005 percentage of active principle | 0.1 percentage of active principle | – | 0.1 percentage of active principle | 0.005 percentage of active principle | 0.5 percentage of active principle | 0.01 percentage of active principle | 0.5 percentage of active principle | 50 µg/mL (≈ 144 µM) | 50 µg/mL (≈ 144 µM) | – | – | > 50 mg/mL
4 | CCCCCCCCCCCC(=O)NCCCN(C)Cc1ccccc1 [SR 45583 A, N-(3-Benzylmethylaminopropyl)lauramide hydrochloride] | 10 µg/mL | 0.05 percentage of active principle | 0.1 percentage of active principle | 50 µg/mL | 0.05 percentage of active principle | 0.5 percentage of active principle | 10 µg/mL | 0.05 percentage of active principle | 0.1 percentage of active principle | 0.01 percentage of active principle | 0.05 percentage of active principle | 0.01 percentage of active principle | 0.5 percentage of active principle | 0.01 percentage of active principle | 0.05 percentage of active principle | 50 µg/mL | 50 µg/mL | – | – | > 50 mg/mL
